Assay results published in patent EP1285918A1, “C7 Ester substituted taxanes as antitumor agents” (Florida State University Research Foundation, Inc., priority 2001, dated 2003).
Like-named read-outs stand apart in the source and are kept apart here.

Columns and labels:
blood cell populations = experiment: Effect of oral treatment on blood cell populations, body weight and tumor weight in MX-1 bearing mice (Example 25, Table 23); assay type: in vivo, nu/nu mice; conditions: 107 mg/kg single oral bolus
Method: (§1) The study was terminated on Day 63.
In addition to survival and tumor regression responses, the effect of treatment on blood cell populations was assessed. The major effect of these antitumor compounds on blood cell populations was a marked reduction in the neutrophil cell number. As well, monocyte depletion correlated fairly well with neutrophil reduction for each antitumor compound. […] There was a correlation between antitumor activity and reduced neutrophil count. In general, toxicity (as determined by neutrophil depletion) and weight loss correlated with efficacy. Importantly, the toxicities observed with the very efficacious antitumor compounds were manageable and reversible; neutrophil count and body weight rebounded from their low points in just a few days. Table 23 summarizes the weight reduction, neutrophil and monocyte measurements on Day 4, with tumor weight reduction calculated at Day 18: Table 23

[1] = test system: MX-1 Human Breast Carcinoma Xenograft; experiment: In vivo evaluation of oral administration of antitumor compounds against MX-1 human breast carcinoma xenograft (Example 25)
Source text: This study investigated the efficacy of various antitumor compounds when administered orally against the MX-1 human breast carcinoma xenograft.
as §1

[2] = test system: MX-1 Human Breast Carcinoma Xenograft; conditions: i.v. qd x 1 (Taxol 36 mg/kg split dose, 1393 72.6 mg/kg); for Mean Score: tumor score 1 to 10, group mean
Method: Antitumor compounds were formulated for an i.v. dosing regime (single i.v. bolus on qd x 1 schedule) prepared in the following vehicle: 5% ethanol, 5% Cremophor and 90% isotonic saline. […] Other compounds were similarly formulated. […] The dosing volume was 0.3 ml per 20 g mouse.
All vehicle control animals in the split dosing regimes were dosed twice intravenously with half the total volume being given separated by one hour. The study was terminated on Day 60.
The mean days of survival is the number of days after which a neoplasm reached a size of 2.0 g and the animal was euthanized. A complete response is obtained if the tumor is not palpable at the end of the study. A partial response is obtained if the tumor shrinks to a size smaller than its size on Day 1 of the study. […]

[3] = test system: SKMES Human Lung Carcinoma Xenograft
Method: The antitumor compound was prepared in the following vehicle: 10% ethanol and 90% Liposyn III.
Female Nu/Nu mice (6-8 weeks of age; implanted with 1 mm^3 SKMES lung carcinoma fragments in the flank) were sorted into treatment groups of six mice each. SKMES size ranges and group mean SKMES size ranges were 126-448 mg and 238-241 mg, respectively. […] Treatments were administered as a single i.v. bolus on Day 1, and the study was terminated on Day 60.
The mean days of survival is the number of days after which a SKMES neoplasm reached a size of 2.0 g and the animal was euthanized. A complete response is obtained if the tumor is not palpable at the end of the study. A partial response is obtained if the tumor shrinks to a size smaller than its size on Day 1 of the study.

[4] = 107 mg/kg single oral bolus, 6 mice/group, study end Day 63
[5] = 15 mg/kg single i.v. bolus Day 1, 6 mice/group, study end Day 60
[6] = 62 mg/kg single i.v. bolus Day 1, 6 mice/group, study end Day 60
[7] = 108 mg/kg single i.v. bolus Day 1, 6 mice/group, study end Day 60
[8] = 154 mg/kg single i.v. bolus Day 1, 6 mice/group, study end Day 60

For `CCC(=O)O[C@H]1C[C@H]2OC[C@@]2(OC(C)=O)[C@H]2[C@H](OC(=O)c3ccccc3)[C@]3(O)C[C@H](OC(=O)[C@H](O)[C@H](C=C(C)C)NC(=O)OC(C)(C)C)C(C)=C([C@@H](O)C(=O)[C@]12C)C3(C)C` [Compound 1351], the “Monocytes (K/µL)” value (blood cell populations; Day 4) was 0.088 K/µL, the “Neutrophils (K/µL)” value (blood cell populations; Day 4) was 0.408 K/µL and the “% Reduction” value (blood cell populations; reduction of monocytes, Day 4) was 8.3%. For the same compound, the “% Reduction” value (blood cell populations; reduction of neutrophils, Day 4) was 55.2%, the “% Reduction” value (blood cell populations; reduction of tumor weight at Day 18) was 85.9% and the “Weight” value (blood cell populations; tumor weight at Day 18) was 122.1 mg. For the same compound, the “Maximum Weight Loss (Day)” value ([1]; 107 mg/kg single oral bolus, 6 mice/group, on Day 5) was -9.1% (5), the “Partial Response” value [1, 4] was 0 and the “Stable Disease” value [1, 4] was 1. For the same compound, the “Toxic Deaths” value [1, 4] was 0, the “Mean Day of Survival (n)” value ([1]; 107 mg/kg single oral bolus, 6 mice/group, study end Day 63, days until tumor reached 1.5 g) was 46.2 ± 5.1 (5) days and the “survival compared to vehicle control mice” value ([1]; MX-1, single oral bolus, doses of Table 22, Day 63) was “significant survival extensions”. The “Complete Response” value ([1]; po, 107 mg/kg, 1512 h) was 0.
Work on `CCC(=O)OC1CC2OCC2(OC(C)=O)C2C(OC(=O)c3ccccc3)C3(O)CC(OC(=O)C(O)C(NC(=O)OC(C)(C)C)c4ccco4)C(C)=C(C(O)C(=O)C12C)C3(C)C` (stereo not drawn) [Compound 1393, 3'-Desphenyl-3'-(2-furyl)-7-propionyl taxotere] yielded a Survivors ([2]; 6 mice/group, Day 60) of 6.
In the case of `CCC(=O)O[C@H]1C[C@H]2OC[C@@]2(OC(C)=O)[C@H]2[C@H](OC(=O)c3ccccc3)[C@]3(O)C[C@H](OC(=O)[C@H](O)[C@@H](NC(=O)OC(C)(C)C)c4ccco4)C(C)=C([C@@H](O)C(=O)[C@]12C)C3(C)C` [Compound 1393, 3'-Desphenyl-3'-(2-furyl)-7-propionyl taxotere], the “Partial Response” value ([2]; 6 mice/group, Day 60) is reported as 1, the “Stable Disease” value ([2]; 6 mice/group, Day 60) is reported as 0 and the “Mean Score” value [2] is reported as 9.8 ± 0.2.
`CCC(=O)O[C@H]1C[C@H]2OC[C@@]2(OC(C)=O)[C@H]2[C@H](OC(=O)c3ccccc3)[C@]3(O)C[C@H](OC(=O)[C@H](O)[C@@H](NC(=O)OC(C)(C)C)c4cccs4)C(C)=C([C@@H](O)C(=O)[C@]12C)C3(C)C` [Compound 1418] was tested, and the Survivors [3, 5] was 0, the “Toxic Deaths” value [3, 5] was 0 and the Survivors [3, 6] was 0. For the same compound, the “Toxic Deaths” value [3, 6] was 0, the “MDS (n)” value ([3]; 62 mg/kg single i.v. bolus Day 1, 6 mice/group, study end Day 60, days until tumor reached 2.0 g) was 35.3 ± 3.3 (6) days and the Survivors [3, 7] was 3. For the same compound, the “Toxic Deaths” value [3, 7] was 0, the Survivors [3, 8] was 5 and the “Toxic Deaths” value [3, 8] was 0. The MDS ([3]; SKMES, 1418 single i.v. bolus 62 mg/kg (Group 4), 2.0 g cut-off) was 35.3 days, the “% Total Response” value ([3]; iv, 15 mg/kg) was 0% and the “Complete Responses” value ([3]; iv, 15 mg/kg) was 0. The “MDS (n)” value ([3]; iv, 15 mg/kg) was 21.2 ± 2.9 (6) days, the “Partial Responses” value ([3]; iv, 15 mg/kg) was 0 and the “% Total Response” value ([3]; iv, 62 mg/kg) was 0%. The “Complete Responses” value ([3]; iv, 62 mg/kg) was 0, the “Partial Responses” value ([3]; iv, 62 mg/kg) was 0 and the “% Total Response” value ([3]; iv, 108 mg/kg) was 50.0%. For the same compound, the “Complete Responses” value ([3]; iv, 108 mg/kg) was 1, the “MDS (n)” value ([3]; iv, 108 mg/kg) was 40.6 ± 2.9 (3) days and the “Partial Responses” value ([3]; iv, 108 mg/kg) was 2. For the same compound, the “% Total Response” value ([3]; iv, 154 mg/kg) was 83.3%, the “Complete Responses” value ([3]; iv, 154 mg/kg) was 5 and the “Partial Responses” value ([3]; iv, 154 mg/kg) was 0.
In the case of `CC(=O)O[C@H]1C(=O)[C@@]2(C)[C@H]([C@H](OC(=O)c3ccccc3)[C@]3(O)C[C@H](OC(=O)[C@H](O)[C@@H](NC(=O)c4ccccc4)c4ccccc4)C(C)=C1C3(C)C)[C@]1(OC(C)=O)CO[C@@H]1C[C@@H]2O` [Taxol, paclitaxel, reference compound], the “Complete Response” value ([2]; 6 mice/group, Day 60) is reported as 0, the “Partial Response” value ([2]; 6 mice/group, Day 60) is reported as 0 and the Survivors ([2]; 6 mice/group, Day 60) is reported as 1. The “Mean Score” value [2] was 1.2 ± 0.8.
